The values below come from patent publication US9289417B2, “Compounds and methods for the modulation of sulfilimine bond formation” (VANDERBILT UNIVERSITY, priority 2009, dated 2016).

“Also recorded” adds a separate entry of the source.

Experiment [1] concerns type IV collagen NC1 domain sulfilimine crosslink formation. The experiment in a line: Type IV collagen NC1 domain sulfilimine crosslink (dimer) formation in matrix of cultured PF HR9 cells, western blot. It is filed as cell-based, mouse. As to conditions: for effect on NC1 domain sulfilimine crosslink (dimer) formation, in words: increasing concentrations, PF HR9 cell culture matrix, western blot; for inhibition of NC1 dimer (D) formation: PF HR9 mouse endodermal cell matrix, anti-α2 chain western blot. As to the method: FIG. 9. Methimazole and Phloroglucinol inhibit type IV collagen NC1 domain sulfilimine crosslink formation. NC1 domains were prepared from collagenase digests of extracellular matrix derived from cultured PF HR9 mouse endodermal cells and detected by western blotting with an anti-α2 chain monoclonal antibody.
Standard drug discovery strategies may identify other agents that specifically target the sulfilimine cross-link system with minimal inhibition of other peroxidase systems. In addition, a monoclonal antibody can be generated to inhibit enzyme activity. These agents represent anti-angiogenic oncologic agents that can be translated to clinical medicine with broad application.
A general note: In western blotting, separated proteins are transferred to a membrane and probed.

A further experiment deals with T1, human peroxidasin (PXDN) (Homo sapiens, UniProt Q92626).
T1 construct: expressed in transfected cells; host or cells: HEK293 (stably transfected)
T1 sequence (Q92626 27-1479): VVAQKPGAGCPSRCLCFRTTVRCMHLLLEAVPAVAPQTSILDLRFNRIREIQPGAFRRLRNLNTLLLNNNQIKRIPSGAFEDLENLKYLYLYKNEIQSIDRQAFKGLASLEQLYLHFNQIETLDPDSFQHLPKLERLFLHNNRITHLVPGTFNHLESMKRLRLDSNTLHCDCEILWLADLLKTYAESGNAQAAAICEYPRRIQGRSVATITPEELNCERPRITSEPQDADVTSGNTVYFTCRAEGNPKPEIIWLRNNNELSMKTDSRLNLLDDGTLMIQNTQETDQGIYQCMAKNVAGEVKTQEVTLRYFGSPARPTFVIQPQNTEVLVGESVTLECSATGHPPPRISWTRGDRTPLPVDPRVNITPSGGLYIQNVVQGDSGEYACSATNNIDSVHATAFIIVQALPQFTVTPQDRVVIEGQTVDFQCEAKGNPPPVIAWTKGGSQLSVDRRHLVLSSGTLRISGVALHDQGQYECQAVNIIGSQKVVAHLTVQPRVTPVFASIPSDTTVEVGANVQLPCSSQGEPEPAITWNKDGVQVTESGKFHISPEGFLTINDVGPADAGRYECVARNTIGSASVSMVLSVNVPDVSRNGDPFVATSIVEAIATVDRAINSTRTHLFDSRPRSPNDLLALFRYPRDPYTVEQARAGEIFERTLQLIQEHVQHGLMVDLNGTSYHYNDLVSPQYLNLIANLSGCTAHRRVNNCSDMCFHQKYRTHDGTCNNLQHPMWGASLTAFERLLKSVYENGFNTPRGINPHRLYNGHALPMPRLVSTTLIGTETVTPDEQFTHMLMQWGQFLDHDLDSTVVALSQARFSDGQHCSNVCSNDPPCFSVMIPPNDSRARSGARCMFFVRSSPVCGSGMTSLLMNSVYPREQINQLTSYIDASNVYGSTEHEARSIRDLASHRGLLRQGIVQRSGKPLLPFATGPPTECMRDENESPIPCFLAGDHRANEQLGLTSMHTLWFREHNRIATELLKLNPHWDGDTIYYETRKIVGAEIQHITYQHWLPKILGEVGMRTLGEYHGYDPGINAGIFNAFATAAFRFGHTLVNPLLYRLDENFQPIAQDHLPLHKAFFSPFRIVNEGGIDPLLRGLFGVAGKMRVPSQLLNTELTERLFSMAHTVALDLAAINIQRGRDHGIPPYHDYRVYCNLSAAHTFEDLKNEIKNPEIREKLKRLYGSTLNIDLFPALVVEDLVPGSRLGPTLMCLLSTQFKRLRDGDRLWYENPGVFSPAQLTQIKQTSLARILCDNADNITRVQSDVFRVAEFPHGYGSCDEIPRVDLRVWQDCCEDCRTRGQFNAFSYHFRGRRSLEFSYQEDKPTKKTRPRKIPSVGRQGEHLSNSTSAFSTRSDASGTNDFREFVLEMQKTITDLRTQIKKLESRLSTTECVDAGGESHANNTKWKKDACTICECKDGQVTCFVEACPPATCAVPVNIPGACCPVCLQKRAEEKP
The experiment in a line: NC1 domain dimerization by HEK293 cells stably transfected with human peroxidasin plated on monomeric PFHR9 matrix. It is filed as cell-based. As to conditions: concentration not given. The text has this: FIG. 11. PXDN mediates NC1 domain dimerization. HEK293 stably transfected with human peroxidasin (PXDN) plated on top of monomeric PFHR9 matrix leads to NC1 domain dimerization (middle lanes). […] Placental basement membrane (PBM) NC1 domain is shown for comparison.
Based on these findings, they pursued peroxidasin, a known matrix peroxidase, as a possible candidate for collagen IV dimer and presumably sulfilimine bond formation. […] Peroxidasin was also identified as an endogenous component of the extracellular matrix produced by the HR-9 cells with the use of mass spectrometry.

As for `Cn1cc[nH]c1=S` [Methimazole, methimazole], the “effect on NC1 domain sulfilimine crosslink (dimer) formation, in words” value in experiment [1] was “decreases crosslinked NC1 dimer (D) while increasing non-crosslinked monomer (M)”; in experiment [1] (listed as methimazole), “inhibit cross-link formation”.

Regarding `Oc1cc(O)cc(O)c1` [Phloroglucinol, phloroglucinol], the “NC1 domain dimerization by PXDN transfected HEK293 cells in the presence of inhibitor” value on human peroxidasin (PXDN) is “No dimer formation was observed; also recorded: fail to lead to dimerization”. Also, the figures for the “inhibition of NC1 dimer (D) formation” value in experiment [1] (Phloroglucinol at 5 uM) and in experiment [1] (Phloroglucinol at 50 uM) were “near complete inhibition” and “complete inhibition”, respectively. In addition, the “effect on NC1 domain sulfilimine crosslink (dimer) formation, in words” value in experiment [1] was “inhibits dimer (D) formation more potently”; in experiment [1] (listed as phloroglucinol) it was “inhibit cross-link formation”.
